# Source: US10550095B2, “Cancerous cell growth inhibiting compounds” (WISYS TECHNOLOGY FOUNDATION, INC., priority 2016, dated 2020)
# Where “and” joins values, the source holds several entries; their conditions need not be identical. Equal values may be shown once. Entries after “also recorded” stand apart in the source; their conditions may differ.
# Tests used:
# [1] = tested on: zebrafish embryos; experiment: Skin Lightening Efficacy of All Analogs on Zebrafish Embryos (Table 1); format: in vivo
# Experimental: (§1) The testing protocols for these compounds are as follows: • a. […] The embryos were monitored and imaged throughout their development to track the development of melanin pigment relative to a control group to which water was administered (Protocol 1). • b. […] The embryos were again monitored and imaged throughout their development relative to a control group to which water was administered (Protocol 2). • c. Additionally, to test the ability of the pigment to recover after being treated with our drugs, all embryos were treated at 24 hpf with the chemicals until the 48 hpf or 64 hpf time period, then washed with water to remove the treatment. The embryos were again monitored and imaged throughout their development relative to a control group to which water was administered (Protocol 3).
# (§2) The black pigment (or melanin) is very easy to observe in zebrafish. In brief, adult zebrafish are taken to breed embryos. Morphologically normal embryos of 24 hours post fertilization (hpf) stage were selected for incubation in the drugs from 24 to 76 hours. During the incubation, the embryos are monitored and imaged (see FIGS. 1 and 3) to track the development of melanin. […] To broaden the comparison with other skin-whitening products, this project can also test at least three other compounds, Kojic acid, Gallic acid and Haginin. […] In the meantime, the whole organism context also allows us to examine the toxicological profile, if any, of these compounds.
# [2] = tested on: zebrafish embryos; experiment: Toxicity in developing zebrafish embryos
# Experimental: as §2
# [3] = tested on: B16-F10 melanoma cells; experiment: cells; format: cell-based
# [4] = tested on: B16-F10 melanoma cells; experiment: Melanin in melanoma cells; format: cell-based, mouse; conditions: for Melanin: melanoma cells
# Excerpt: (MEK-I is a known MEK inhibitor as a comparison purchased from Sigma): […]
# [5] = tested on: transgenic melanoma zebrafish embryos; experiment: Melanoma formation and recovery in transgenic melanoma zebrafish embryos; format: in vivo
# Experimental: (§3) The intracellular signaling pathway that involves Raf and MEK is known to be the major pathway to regulate cell proliferation. Many current melanoma drugs such as cobimetinib works by inhibiting Raf or MEK. While they are effective in inhibiting melanoma growth, they exert different degrees of side effect on normal cells by inhibiting the Raf-MEK pathway. […] Also, with regard to FIG. 13, the compound SK-03-92 is shown to inhibit melanoma cell growth by approximately 10% at 10 μM and at 100% at 40 μM.
# [6] = tested on: MEK; experiment: MEK activity (FIG. 12)
# Excerpt: FIG. 12 are photo illustrations of MEK activity with exemplary embodiments of the human drug treatments of the present invention; and
# as §3
# [7] = tested on: zebrafish embryos; experiment: Inhibition of melanin synthesis in zebrafish embryos, treated 24-76 hpf (Protocol 1); format: in vivo; conditions: for pigmentation in comparison to the control group: zebrafish embryos treated 24 to 76 hpf
# Experimental: as §1, §2
# [8] = tested on: zebrafish embryos; experiment: Effect on existing melanin and/or melanocytes, embryos treated at 48 hpf (Protocol 2); format: in vivo
# Experimental: (§4) The testing protocols for these compounds are as follows: • a. […] The embryos were monitored and imaged throughout their development to track the development of melanin pigment relative to a control group to which water was administered (Protocol 1). • b. To test the effects of the drugs on existing melanin and/or melanocytes, the embryos were treated with the chemicals at 48 hpf, after pigment had developed. The embryos were again monitored and imaged throughout their development relative to a control group to which water was administered (Protocol 2). • c. Additionally, to test the ability of the pigment to recover after being treated with our drugs, all embryos were treated at 24 hpf with the chemicals until the 48 hpf or 64 hpf time period, then washed with water to remove the treatment. The embryos were again monitored and imaged throughout their development relative to a control group to which water was administered (Protocol 3).
# To test the effects of the drugs on existing melanin and/or melanocytes, the embryos were treated with the chemicals A11, MEK-I and PTU at 48 hpf, after pigment had developed. The embryos were again monitored and imaged throughout their development according to Protocol 2.
# [9] = tested on: zebrafish embryos; experiment: Pigment recovery after compound withdrawal (Protocol 3); format: in vivo; conditions: treated 24-48 hpf or 24-64 hpf, then washed; by 72 hpf
# Experimental: as §4
# It has been reported that melanin usually reappears after the withdrawal of skin whitening products. […] The pigmentation was monitored closely for 48-72 hours. Similarly, this experiment was repeated at least three times to gain a reproducible result.
# [10] = tested on: MAPK; experiment: Western blot for phosphorylated MAPK in melanoma cells; format: cell-based, mouse; conditions: melanoma cells (FIG. 19A)
# Excerpt: We wanted to further understand the molecular mechanism of A11 and its derivatives by examining the activities of MAPK, Akt, and PRPP pathways which regulate cell proliferation and cell death.
# MAPK is involved in the major cell proliferation signaling pathway. In many cancer cells, MAPK is activated at high level by phosphorylation. Using the anti-phosphorylated-MAPK (p-MAPK) on western blot, it is very easy to understand the proliferation ability in cells. […] While the results are against our hypothesis and current understanding, it raises a very interesting mechanism of A11 which requires further investigation. […] The current understanding is that activated MAPK and Akt both lead to cell proliferation.
# [11] = tested on: MITF; experiment: Western blot for MITF protein level in B16-F10 cells; format: cell-based, mouse; conditions: western blot vs DMSO control (FIG. 21)
# Excerpt: (§5) To understand how A11 inhibits melanoma proliferation, we examined the MITF expression level in A11-treated B16-F10 cells by western blot and RT-qPCR.
# [12] = tested on: MITF; experiment: RT-qPCR of MITF (mit-f) in melanoma cells; format: cell-based, mouse
# Excerpt: as §5
# (§6) The results of several qPCR experiments using melanoma cells were compiled in FIG. 20. Pax3 and sox10 are genes determine the melanocyte precursors while mit-f is the specific transcription factor that initiates melanocyte differentiation. Dct and tyr genes are expressed in differentiated melanocytes. […] The decrease in magnitude is not significant likely due to the very heterogeneous cell types in melanoma.
# [13] = tested on: Pax3; experiment: RT-qPCR of Pax3 in melanoma cells; format: cell-based, mouse
# Excerpt: as §5, §6
# [14] = tested on: DCT (dopachrome tautomerase); experiment: RT-qPCR of DCT in melanoma cells; format: cell-based, mouse
# Excerpt: as §5, §6
# [15] = tested on: tyrosinase; experiment: RT-qPCR of tyrosinase in melanoma cells; format: cell-based, mouse
# Excerpt: as §5, §6
compound,measurement,setting,value
COc1cc(O)cc(/C=C/n2ncc3ccccc32)c1 [SK0954],Pigmentation,[1]; concentration not given,0%
"COc1cc(O)cc(/C=C/c2cc3ccccc3s2)c1 [SK0392, (E)-3-(2-(Benzo[b]thiophen-2-yl)vinyl)-5-methoxyphenol]",toxicity in embryos (in words),"[2]; zebrafish, in vivo",almost no detectable toxicity
same,Pigmentation,[1]; 50 uM,20% (50 uM)
same,Average Melanoma growth (from the previous chart),[3]; 10 μM,100%
same,inhibition at 10 µM,"[3]; Mus musculus, B16-F10, 10 μM (FIG. 13), read-out: inhibition of melanoma cell growth",~10%
same,inhibition at 40 µM,"[3]; Mus musculus, B16-F10, 40 μM (FIG. 13), read-out: inhibition of melanoma cell growth",100%
same,inhibition of melanoma cell growth / cell number (in words),[3]; melanoma cells,decrease of melanin as well as the cell number
same,Growth,"[3]; melanoma cells, 10 μM",100%
same,Melanin,[4]; 10 μM,97%
same,melanin in B16-F10 cells (in words),[4]; mouse cell line B16-F10,decrease of melanin
same,formation and recovery of melanoma (in words),[5],inhibited the formation and recovery of melanoma
same,MEK activity (in words),[6],increasing MEK activity
COc1cc(O)cc(/C=C/Oc2ccccc2)c1 [CL1],Pigmentation,[1]; 40 uM,0% (40 uM)
COc1cc(O)cc(/C=C/Oc2cccc(OC)c2)c1 [Analog A8],Pigmentation,[1]; concentration not given,10%
COc1cc(O)cc(/C=C/n2ccc(C(F)(F)F)n2)c1 [SK0951],Pigmentation,[1]; concentration not given,0%
"N#CC(=C(N)Sc1ccccc1N)C(C#N)=C(N)Sc1ccccc1N [MEK-I, reference compound]",Pigmentation,"[7]; zebrafish embryos treated 24-76 hpf, 10 μM",60%
same,effect on existing pigment (in words),[8],has no effect; also recorded: ineffective
same,pigmentation recovered after wash-off,[9],100%
same,toxicity in embryos (in words),[2]; developing zebrafish embryos,various levels of toxicity; also recorded: Notocord toxicity is present
same,Average Melanoma growth (from the previous chart),[3]; 10 μM,67%
same,Average Melanoma growth (from the previous chart),[3]; 20 μM,35%
same,Growth,"[3]; melanoma cells, 10 μM",72% and 62%
same,Melanin,[4]; 10 μM,104% and 78% and 94%
same,Melanin,[4]; 20 μM,82% and 84%
same,amount of p-MAPK / MAPK activity (in words),[10],effectively suppresses the amount of p-MAPK
same,MITF protein level (in words),[11],high level of MITF
same,MITF (mit-f) mRNA expression (in words),[12],no effect on the MITF transcription
same,Pax3 expression (in words),[13],increases Pax3 transcription
same,DCT expression (in words),[14],decreased
same,tyrosinase expression (in words),[15],decreased
"NC(=S)Nc1ccccc1 [PTU, phenylthiourea, reference compound]",pigmentation inhibition (in words),[7]; zebrafish embryos treated 24-76 hpf,nearly complete pigmentation loss
same,Pigmentation,"[7]; zebrafish embryos treated 24-76 hpf, 0.003%",10%
same,effect on existing pigment (in words),[8],remove existing pigment
same,existing pigment remaining,[8],20%
same,pigmentation recovered after wash-off,[9],100%
same,toxicity in embryos (in words),[2]; developing zebrafish embryos,various levels of toxicity
same,Average Melanoma growth (from the previous chart),[3]; concentration not given,107%
same,Growth,"[3]; melanoma cells, concentration not given",87% and 107% and 128% and 106%
same,Melanin,[4]; concentration not given,59% and 67% and 89% and 64%
COc1cc(O)cc(/C=C/Sc2ccccc2)c1 [CL4],Pigmentation,[1]; concentration not given,0%
same,Average Melanoma growth (from the previous chart),[3]; 10 μM,93%
same,Growth,"[3]; melanoma cells, 10 μM",93%
same,Melanin,[4]; 10 μM,107%
CC1=C(/C=C/C(C)=C/C=C/C(C)=C/C(=O)O)C(C)(C)CCC1 [Tretinoin],pigmentation in comparison to the control group,[7]; 0.1%,80%
COc1ccc(S/C=C/c2cc(O)cc(OC)c2)cc1 [SK0503],Pigmentation,[1]; concentration not given,0%
NC(=O)c1cccnc1 [Niacinamide],pigmentation in comparison to the control group,[7]; 1%,10%
COc1cc(O)cc(/C=C/c2cccs2)c1 [CL6],Pigmentation,[1]; concentration not given,0%
COc1cc(/C=C/Oc2ccccc2)cc(OC)c1 [CL2],Pigmentation,[1]; concentration not given,5%
OC[C@H]1O[C@@H](Oc2ccc(O)cc2)[C@H](O)[C@@H](O)[C@@H]1O [Arbutin],pigmentation in comparison to the control group,[7]; 100 μM,30%
COc1cc(O)cc(/C=C/Oc2cccc(C)c2)c1 [Analog A9],Pigmentation,[1]; concentration not given,10%
same,Average Melanoma growth (from the previous chart),[3]; 10 μM,78%
same,Average Melanoma growth (from the previous chart),[3]; 40 μM,76%
same,Growth,"[3]; melanoma cells, 10 μM",78%
same,Growth,"[3]; melanoma cells, 40 μM",76%
same,Melanin,[4]; 10 μM,101%
same,Melanin,[4]; 40 μM,96%
COc1cc(O)cc(/C=C/n2ccc3ccccc32)c1 [SK0953],Pigmentation,[1]; concentration not given,0%
same,Average Melanoma growth (from the previous chart),[3]; 20 μM,71%
same,Growth,"[3]; melanoma cells, 20 μM",71%
same,Melanin,[4]; 20 μM,96%
COc1cc(O)cc(/C=C/Sc2ccccc2C(C)C)c1 [SK0501],Pigmentation,[1]; concentration not given,0%
